According to patent EP0049913A2, “New ethenylimidazole derivatives, processes for their preparation and pharmaceutical compositions containing them; intermediates, useful in their preparation and a process for the preparation thereof” (GIST-BROCADES N.V., priority 1980, dated 1982):
Counter-ions that a name gives are not always drawn.

Each compound was assayed on Candida albicans strain A 7 (assay: method B: vaginitis candidamycetica in mice (vaginal reduction)). Settings: local intravaginal treatment in Plastibase, two applications daily for four days, clotrimazol = 100%.
Type: in vivo
Experimental: Female Swiss SPF mice, weighing 19-21 g, fifteen animals per group, following an intramuscular premedication by Dimenformon prolongatum, were inoculated intravaginally with +5.105 CFU of Candida albicans strain A 7, harvested from a culture on Mycological Agar and suspended in physiological saline.
The treatment commenced 72 hours after infection when the candidiasis had reached its peak. A four day local treatment period was employed, consisting of two applications daily of 0.02 ml of antimycotics in Plastibase intravaginally. Alternatively, the test compound was administered orally in three doses daily for three days.
On the seventh day after infection the mice were killed, the vagina was excised and homogenized in saline and cultivated on Mycological Agar. The yeast cells were then counted and expressed as CFU/vagina. Results were analysed statistically using the T-test. The results were compared with those obtained with clotrimazol, the action of which was considered as 100%.

Structure (SMILES) | vag.red. %
CC(C)(C)C(=Cn1ccnc1)c1ccc(Cl)cc1Cl.O=[N+]([O-])O [IV, 1-[2-(2,4-dichlorophenyl)-3,3-dimethyl-1-butenyl]-1H-imidazole nitrate] | 59%
CCC(C)C(=Cn1ccnc1)c1ccc(Cl)cc1Cl.Cl (stereo not drawn) [III, 1-[2-(2,4-Dichlorophenyl)-3-methyl-1-pentenyl]-1H-imidazole hydrochloride] | 136%

Same assay, conditions: p.o., three doses daily for three days, clotrimazol = 100%

Structure (SMILES) | vag.red. %
Clc1ccc(C(=Cn2ccnc2)C2CCCCC2)cc1 [V, 1-[2-(4-chlorophenyl)-2-cyclohexylethenyl] -lH-imidazole hydrochloride] | 150 (p.o.) %
CC(C)(C)C(=Cn1ccnc1)c1ccc(Cl)cc1Cl.O=[N+]([O-])O [IV, 1-[2-(2,4-dichlorophenyl)-3,3-dimethyl-1-butenyl]-1H-imidazole nitrate] | 24%

The compounds below were run on Candida albicans strain A 7 (assay: method A: systemic infection with Candida albicans in mice). Settings: i.p., three doses daily for 3 days, control animals = 1.
Type: in vivo
Experimental: A. Testing of compounds against systemic infection with Candida albicans in mice.
Female Swiss SPF mice, weighing […], ten animals per group, were challenged intravenously with 0.5 ml Candida albicans strain A 7 suspension containing sufficient yeast cells to kill 50% of the untreated animals within 5 days. The treatment consisted of three doses daily administered for 3 days either orally or intraperitoneally. Infected, non treated mice served as controls for mortality. The number of mice surviving the challenge was recorded daily and the ratio between the "median survival duration (days)" of the treated and untreated mice was determined, the survival duration of the control animals being graded as 1 (IMSD = Index Median Survival Duration).

Structure (SMILES) | IMSD (Index Median Survival Duration)
Clc1ccc(C(=Cn2ccnc2)C2CCCCC2)cc1 [V, 1-[2-(4-chlorophenyl)-2-cyclohexylethenyl] -lH-imidazole hydrochloride] | 3.5
CC(C)(C)C(=Cn1ccnc1)c1ccc(Cl)cc1Cl.O=[N+]([O-])O [IV, 1-[2-(2,4-dichlorophenyl)-3,3-dimethyl-1-butenyl]-1H-imidazole nitrate] | 5.1
CCC(C)C(=Cn1ccnc1)c1ccc(Cl)cc1Cl.Cl (stereo not drawn) [III, 1-[2-(2,4-Dichlorophenyl)-3-methyl-1-pentenyl]-1H-imidazole hydrochloride] | 3.5

Same assay, conditions: p.o., three doses daily for 3 days, control animals = 1

Structure (SMILES) | IMSD (Index Median Survival Duration)
Clc1ccc(C(=Cn2ccnc2)C2CCCCC2)cc1 [V, 1-[2-(4-chlorophenyl)-2-cyclohexylethenyl] -lH-imidazole hydrochloride] | 4.1
CC(C)(C)C(=Cn1ccnc1)c1ccc(Cl)cc1Cl.O=[N+]([O-])O [IV, 1-[2-(2,4-dichlorophenyl)-3,3-dimethyl-1-butenyl]-1H-imidazole nitrate] | 3.1
CCC(C)C(=Cn1ccnc1)c1ccc(Cl)cc1Cl.Cl (stereo not drawn) [III, 1-[2-(2,4-Dichlorophenyl)-3-methyl-1-pentenyl]-1H-imidazole hydrochloride] | 4.1

What follows are compounds tested on Candida albicans (assay: agar dilution test, Candida albicans). Settings: 48 h.
Type: cell-based
Experimental: (§1) The compounds of the invention were tested in vitro and in vivo. The in vitro activities were determined by means of the usual agar dilution test. The results after two and five days were expressed as MIC 50 and MIC 90, i.e. the minimum concentrations giving complete inhibition of 50% or 90% of the strains tested in […] and as Potency Ratio (P.R.), i.e. the ratio between the activity of the test compound and the activity of miconazol (= 1).

Structure (SMILES) | MIC50 | MIC90
CC(C)(C)C(=Cn1ccnc1)c1ccc(Cl)cc1Cl.O=[N+]([O-])O [IV, 1-[2-(2,4-dichlorophenyl)-3,3-dimethyl-1-butenyl]-1H-imidazole nitrate] | 3 ng/mL | 5 ng/mL

Same assay, conditions: 48 h, after 2 d, complete inhibition of 50% of the strains tested, read-out: MIC 50

Structure (SMILES) | MIC50
Clc1ccc(C(=Cn2ccnc2)C2CCCCC2)cc1 [V, 1-[2-(4-chlorophenyl)-2-cyclohexylethenyl] -lH-imidazole hydrochloride] | 3 ng/mL
CCC(C)C(=Cn1ccnc1)c1ccc(Cl)cc1Cl.Cl (stereo not drawn) [III, 1-[2-(2,4-Dichlorophenyl)-3-methyl-1-pentenyl]-1H-imidazole hydrochloride] | 5 ng/mL

Same assay, conditions: 48 h, after 2 d, complete inhibition of 90% of the strains tested, read-out: MIC 90

Structure (SMILES) | MIC90
Clc1ccc(C(=Cn2ccnc2)C2CCCCC2)cc1 [V, 1-[2-(4-chlorophenyl)-2-cyclohexylethenyl] -lH-imidazole hydrochloride] | 8 ng/mL
CCC(C)C(=Cn1ccnc1)c1ccc(Cl)cc1Cl.Cl (stereo not drawn) [III, 1-[2-(2,4-Dichlorophenyl)-3-methyl-1-pentenyl]-1H-imidazole hydrochloride] | 10 ng/mL

Same assay, conditions: 2 d, ratio to activity of miconazol (= 1)

Structure (SMILES) | Potency Ratio (P.R.) MIC 50 | Potency Ratio (P.R.) MIC 90
Clc1ccc(C(=Cn2ccnc2)C2CCCCC2)cc1 [V, 1-[2-(4-chlorophenyl)-2-cyclohexylethenyl] -lH-imidazole hydrochloride] | 1.3 | 1.0
CC(C)(C)C(=Cn1ccnc1)c1ccc(Cl)cc1Cl.O=[N+]([O-])O [IV, 1-[2-(2,4-dichlorophenyl)-3,3-dimethyl-1-butenyl]-1H-imidazole nitrate] | 0.7 | 0.9
CCC(C)C(=Cn1ccnc1)c1ccc(Cl)cc1Cl.Cl (stereo not drawn) [III, 1-[2-(2,4-Dichlorophenyl)-3-methyl-1-pentenyl]-1H-imidazole hydrochloride] | 0.7 | 0.9

Same assay, conditions: 120 h

Structure (SMILES) | MIC50 | MIC90
CC(C)(C)C(=Cn1ccnc1)c1ccc(Cl)cc1Cl.O=[N+]([O-])O [IV, 1-[2-(2,4-dichlorophenyl)-3,3-dimethyl-1-butenyl]-1H-imidazole nitrate] | 5 ng/mL | 11 ng/mL

Same assay, conditions: 120 h, after 5 d, complete inhibition of 50% of the strains tested, read-out: MIC 50

Structure (SMILES) | MIC50
Clc1ccc(C(=Cn2ccnc2)C2CCCCC2)cc1 [V, 1-[2-(4-chlorophenyl)-2-cyclohexylethenyl] -lH-imidazole hydrochloride] | 5 ng/mL
CCC(C)C(=Cn1ccnc1)c1ccc(Cl)cc1Cl.Cl (stereo not drawn) [III, 1-[2-(2,4-Dichlorophenyl)-3-methyl-1-pentenyl]-1H-imidazole hydrochloride] | 6 ng/mL

Same assay, conditions: 120 h, after 5 d, complete inhibition of 90% of the strains tested, read-out: MIC 90

Structure (SMILES) | MIC90
Clc1ccc(C(=Cn2ccnc2)C2CCCCC2)cc1 [V, 1-[2-(4-chlorophenyl)-2-cyclohexylethenyl] -lH-imidazole hydrochloride] | 10 ng/mL
CCC(C)C(=Cn1ccnc1)c1ccc(Cl)cc1Cl.Cl (stereo not drawn) [III, 1-[2-(2,4-Dichlorophenyl)-3-methyl-1-pentenyl]-1H-imidazole hydrochloride] | 11 ng/mL

Same assay, conditions: 5 d, ratio to activity of miconazol (= 1)

Structure (SMILES) | Potency Ratio (P.R.) MIC 50 | Potency Ratio (P.R.) MIC 90
Clc1ccc(C(=Cn2ccnc2)C2CCCCC2)cc1 [V, 1-[2-(4-chlorophenyl)-2-cyclohexylethenyl] -lH-imidazole hydrochloride] | 1.1 | 1.1
CC(C)(C)C(=Cn1ccnc1)c1ccc(Cl)cc1Cl.O=[N+]([O-])O [IV, 1-[2-(2,4-dichlorophenyl)-3,3-dimethyl-1-butenyl]-1H-imidazole nitrate] | 0.5 | 0.5
CCC(C)C(=Cn1ccnc1)c1ccc(Cl)cc1Cl.Cl (stereo not drawn) [III, 1-[2-(2,4-Dichlorophenyl)-3-methyl-1-pentenyl]-1H-imidazole hydrochloride] | 0.7 | 1.2

What follows are compounds tested on Trichophyton spp. (assay: agar dilution test, Trichophyton spp.). Settings: 5 d, ratio to activity of miconazol (= 1).
Type: cell-based
Experimental: as §1

Structure (SMILES) | Potency Ratio (P.R.) MIC 50 | Potency Ratio (P.R.) MIC 90
Clc1ccc(C(=Cn2ccnc2)C2CCCCC2)cc1 [V, 1-[2-(4-chlorophenyl)-2-cyclohexylethenyl] -lH-imidazole hydrochloride] | 0.8 | 0.6
CC(C)(C)C(=Cn1ccnc1)c1ccc(Cl)cc1Cl.O=[N+]([O-])O [IV, 1-[2-(2,4-dichlorophenyl)-3,3-dimethyl-1-butenyl]-1H-imidazole nitrate] | 15.1 | 4.1.
CCC(C)C(=Cn1ccnc1)c1ccc(Cl)cc1Cl.Cl (stereo not drawn) [III, 1-[2-(2,4-Dichlorophenyl)-3-methyl-1-pentenyl]-1H-imidazole hydrochloride] | 1.7 | 0.8

The compounds below were run on Trichophyton mentagrophytes strain R 177 (assay: method C: experimental dermatophytic infection in guinea pigs). Settings: local treatment, 2% in Plastibase, twice daily for 10 days; scored on 14th day; grades 1-4; untreated animals 4.
Type: in vivo
Experimental: C. Testing of compounds against experimental dermatophytic infection. (Trichophyton mentagrophytes)
Out-bred blanco TNO female guinea pigs, five animals per group, weighing + 350 g, were prepared by depilation high in the middle of the back over an area 2.5 cm in diameter.
Inoculum was prepared from a culture of Trichophyton mentagrophytes strain R 177 on Mycological Agar. The harvested mycelial mat was diluted in a 20% dextrose solution in water and the suspension was smeared over the depilated area.
Local treatment with 2% concentration of the antimycotic in Plastibase started 72 hours after infection and concurrently the application of vehiculum (Plastibase) to the infected animals was initiated. The application was continued for 10 days and consisted of two applications daily of a measured quantity of ointment to the infected area.
Scoring of lesions and the final check was made on the 14th day after the infection was initiated. The lesions were graded as to the following parameters: • 1 = slight whitish scaling, with erythema • 2 = slight whitish or light yellow scaling with solitary haemorrhagias • 3 = thick whitish-yellow crust or scab • 4 = haemorrhagic ulcer or giant haemorrhagic thick scutula (crust).
The final results were recorded as the average of lesion intensities (A.L.I.) for each experimental group (treated with either test compound or reference compound and untreated control).

Structure (SMILES) | A.L.I. (average of lesion intensities)
CC(C)(C)C(=Cn1ccnc1)c1ccc(Cl)cc1Cl.O=[N+]([O-])O [IV, 1-[2-(2,4-dichlorophenyl)-3,3-dimethyl-1-butenyl]-1H-imidazole nitrate] | 0
CCC(C)C(=Cn1ccnc1)c1ccc(Cl)cc1Cl.Cl (stereo not drawn) [III, 1-[2-(2,4-Dichlorophenyl)-3-methyl-1-pentenyl]-1H-imidazole hydrochloride] | 0
